According to patent publication US9266835B2, “Quinoline derivatives useful as CB-1 inverse agonists” (JANSSEN PHARMACEUTICA NV, priority 2014, dated 2016):
Like-named read-outs stand apart in the source and are kept apart here.

Assays:
[1] = Mouse Fast PK/BBB (plasma and brain concentration); type: in vivo; conditions: male, C57bl/6j, brain, oral, N=3 (dose given as 30 mg/kg and 20 mg/kg), read-out: BRAIN Mean Conc. ± Std. Dev
[2] = Open field locomotor study in rats: plasma and brain concentrations 4 hrs post dosing; type: in vivo; conditions: male, Sprague Dawley, rat, oral
Text: (§1) Male Sprague Dawley rats were ordered from Charles River (225-250 gm upon arrival). They were fed standard chow diet (Purina 5001) and housed 2 per cage. Male C57bl/6j mice were ordered from Charles River at 22-25 g and housed 3 per cage. They were fed standard chow (Purina 5001). All animals were housed in a temperature-controlled room with 12-hour light/dark cycle. Animals were given food and water ad libitum, except as noted.
(§2) Test compounds were formulated in 10% PEG400 and 10% solutol. Test compounds were administered by oral gavage (5 ml kg^−1).
Male SD rats were weighed and transferred to the Activity Chambers with access to water. After a 2-hr acclimation period, the rats were dosed with vehicle or test compound (@ 3 and 10 mg/kg). The Activity Chamber monitoring software program was initiated and automatically recorded rat activity in each chamber for a period of 4 hours. At the end of the 4 hour monitoring period, the software was stopped and the rats were removed from the activity chambers. The rats were anesthetized and blood samples were obtained via retro-orbital puncture to determine plasma concentration of compounds. The rats were immediately euthanized with CO2 and the brains removed, washed with PBS, frozen on dry ice and stored at −80° C. for receptor occupancy (RO) analysis.
Satellite groups of 3 rats were dosed with test compound at 3 mg/kg and 10 mg/kg respectively. Four hours later, the rats were anesthetized. Blood was collected from these rats and then they were perfused with 400 ml heparinized saline through the left ventricle of the heart. The brains were removed and homogenized in PBS (4 ml/gm tissue). The samples were submitted for determination of plasma and brain compound levels.
Compound #44 was tested in n=8 animals, according to the procedure as described above, with stereotypic counts as listed in Table BIO-5A; and plasma and brain drug levels as listed in Table BIO-5B, below.

[3] = Mouse Fast PK/BBB (plasma and brain concentration); type: in vivo; conditions: male, C57bl/6j, oral, N=3 (dose given as 30 mg/kg and 20 mg/kg)
Text: as §1, §2
Male C57bl/6j mice were dosed with test compounds at 30 mg/kg. Plasma was collected via retro-orbital bleeding at 1 hr and 4 hrs after dosing. Whole brain without cerebellum was collected at 4 hrs after dosing. Wet brain weight was recorded before freezing. Brains were homogenized in saline and sent for analysis for determination of concentration of test compound.
Table BIO-3 below present results for representative compounds of the present invention, tested according to the procedure as described above. Each compound was tested in three animals (N=3) and administered PA at 20 mg/kg

[4] = molecular target: Human CB1R (Cannabinoid receptor 1) (Homo sapiens (Human), UniProt P21554); test: CB-1 in vitro cAMP assay (HTRF), inverse agonism; type: cell-based; conditions: mean where tested more than once
Chain of Human CB1R (Cannabinoid receptor 1) (P21554 whole entry): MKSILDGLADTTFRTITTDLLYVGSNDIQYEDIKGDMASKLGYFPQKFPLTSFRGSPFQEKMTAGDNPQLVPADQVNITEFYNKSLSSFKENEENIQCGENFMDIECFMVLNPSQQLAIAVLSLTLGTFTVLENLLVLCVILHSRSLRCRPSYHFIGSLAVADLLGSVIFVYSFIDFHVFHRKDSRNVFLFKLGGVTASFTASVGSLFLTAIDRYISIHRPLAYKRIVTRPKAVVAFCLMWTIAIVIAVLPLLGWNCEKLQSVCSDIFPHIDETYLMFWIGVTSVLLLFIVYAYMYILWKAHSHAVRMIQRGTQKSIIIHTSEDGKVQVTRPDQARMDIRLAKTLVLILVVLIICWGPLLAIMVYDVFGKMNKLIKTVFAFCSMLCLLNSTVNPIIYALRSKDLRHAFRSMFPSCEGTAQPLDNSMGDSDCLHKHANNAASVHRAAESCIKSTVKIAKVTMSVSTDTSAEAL

Which concentration at 1 h [1] does the source give for `O=c1cc(NC2CCN(S(=O)(=O)C(F)(F)F)CC2)c2cc(C(c3ccc(Cl)cc3)c3ccc(Cl)cc3)ccc2[nH]1` [Compound #44, 6-(bis(4-chlorophenyl)methyl)-4-(1-(trifluoromethylsulfonyl)piperidin-4-ylamino)quinolin-2(1H)-one] here?
Its concentration at 1 h is 7.62 ± 2.28 ng/mL.

What about the concentration at 4 h ([2]; brain, 3 mg/kg, read-out: Brain Mean ± Std Dev) of the same compound?
The concentration at 4 h was 9.85 ng/g.

And the concentration at 4 h ([2]; brain, 10 mg/kg, read-out: Brain Mean ± Std Dev)?
Its concentration at 4 h is 22.7 ng/g.

What about the concentration at 4 h ([2]; plasma, 3 mg/kg, read-out: Plasma Mean ± Std Dev) of the same compound?
Its concentration at 4 h is 126 ng/mL.

And the concentration at 4 h ([2]; plasma, 10 mg/kg, read-out: Plasma Mean ± Std Dev)?
The concentration at 4 h was 501 ng/mL.

What about the concentration at 4 h ([3]; brain, read-out: BRAIN Mean Conc. ± Std. Dev) of the same compound?
The concentration at 4 h was 11.8 ± 8.99 ng/mL.

What about the concentration at 1 h ([3]; plasma, 1 hr, read-out: PLASMA Mean Conc. ± Std. Dev) of the same compound?
The concentration at 1 h was 1050 ± 122 ng/mL.

What about the concentration at 4 h ([3]; plasma, read-out: PLASMA Mean Conc. ± Std. Dev) of the same compound?
The concentration at 4 h was 1180 ± 148 ng/mL.

What about the EC50 [4] of the same compound?
The EC50 was 8 nM.
